Results: patent US20250129021A1, “SMALL MOLECULE PROTEIN SYNTHESIS MODULATORS” (Interdict Bio, Inc., priority 2023, published 2025)

Legend:
Format in all cases: biochemical
[1] = test system: MCL-1; experiment: In vitro transcription-translation (IVTT) assay, MCL-1 reporter; settings: IVTT, HeLa S3 lysate, 2 hrs at 30° C.; read-out: MCL1 IC50
Method in brief: (§1)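 Reporter: mCherry, P2A, then 3×FLAG-target peptide-sfGFP fusion, IRES-initiated; HeLa S3 lysate IVTT; cpd dilutions 30 μM−0.1 μM half-log in 100% DMSO (dilution-plate conc); DNA added last; 2 h, 30° C; PBS quench.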

[2] = test system: MYC; experiment: In vitro transcription-translation (IVTT) assay, MYC reporter; settings: IVTT assay, HeLa S3 lysate, MYC reporter, normalized sfGFP/mCherry ratio; half-log dilutions 30 μM-0.1 μM, 2 hrs at 30° C.
Method in brief: as §1

[3] = test system: CCND1; experiment: In vitro transcription-translation (IVTT) assay, CCND1 reporter; settings: IVTT, HeLa S3 lysate, 2 hrs at 30° C.
Method in brief: as §1

[4] = test system: CCNE1; experiment: In vitro transcription-translation (IVTT) assay, CCNE1 reporter; settings: HeLa S3 lysate, 2 hrs at 30° C.
Method: Each preparation takes 8 cell pellets (4 ml packed volume each, approximately 1.0×10^9 cells per pellet). Thaw cell pellets from −80° C. on ice for 90 mins. Lay pellets horizontally on top of the ice and rotate every 30 mins to ensure even thawing. Once thawed, add 4 mL of cold lysis buffer to each pellet, and using a serological pipet, gently pipet up and down to break up clumps. Incubate resuspended cells in ice for an additional 30 mins (plunged into ice). During 30 min incubation, rinse and RNase-zap (Ambion) glass dounces (use loose pestle “A”), gently dry and place on ice until needed. Prepare RNase-free Eppendorf tubes for spinning and for batch storage. Add batch labels to 1.5-1.7 mL RNase-free microcentrifuge tubes (labeling scheme below). Each batch will have an extra 1.5-1.7 mL RNase-free microcentrifuge tube for 40 μL of lysate, label the top of this tube (labeling scheme below). After 30 min incubation, transfer all 8 mL of cell pellet to dounce. Cell lysis is complete after douncing 100 times. Aliquot cell lysis into 1.5-1.7 mL temporary-microcentrifuge tubes. Place tubes in centrifuge with “fins” out, and spin at 1,200×g for 5 mins. After the first spin use a 1 mL pipet to resuspend each tube and repeat spin. This acts as an additional lysis step, is more vigorous and increases lysate yield. During second spin get liquid N2 and a fresh conical tube on ice. After spin is complete, transfer supernatant (lysate) from microcentrifuge tubes into the 50 mL conical tube and keep on ice. Repeat steps 10-14 for all other cell pellets until completed. Once all cell lysate has been transferred to the 50 mL conical tube pipet to mix so the solution is homogenous. Transfer 1 mL of lysate into batch-labeled microcentrifuge tubes and flash freeze in liquid nitrogen. Be sure to pipet up and down to mix throughout transfer step. Place all tubes in the […] for long-term storage.
In vitro transcription-translation assay setup: Each assay includes a master mix containing lysate and shared components, a 96-well plate containing compound titrations for testing, a 96-well DNA plate with reporter constructs to be tested, 96-well skirted PCR plates, and 96-well flat-bottom, black, fluorescent assay plates. Reaction materials setup: (A) Master mix—15 mL conical tube (3 mL of HeLa S3 Lysate described above; 0.6 mL of ThermoFisher Accessory Proteins (#88882); 1.2 ml of ThermoFisher Reaction Mix (#88882); 0.54 mL of nuclease-free Water); (B) 96-Well Master Mix+Compound Plate (Half-log dilutions (30 μM−0.1 μM) of 4 compounds of interest are prepared in 100% DMSO); 96-Well DNA Plate (Five DNA constructs are plated into single columns within the plate. Row 1 of the column contains nuclease free H2O, all other wells contain 110 ng/μL plasmid DNA). Reactions are started by mixing 155 μL of master mix and 3.5 μL of compound serial dilutions, then 9.1 μL of master mix+compound mixture is aliquoted across 5 96-well plates. Reactions begin with final addition of 2 μL of DNA for a 11.1 μL reaction volume in each well. The entire plate is sealed, and incubated for 2 hrs at 30° C. After 2 hrs, quench the assay using 45 μL of PBS, and transfer 50 μL to a flat-bottom black microplate Quantify the sfGFP and mCherry signals from each well on each plate, taking 3 reads of each plate, and perform data analysis below.
In vitro transcription-translation assay data analysis: Each plate is read three times in channels for both sfGFP and mCherry signals. The average signal across these 3 reads is then calculated for further analysis. Control wells containing no DNA reporter are subtracted from reporter wells in the same column to remove auto-fluorescence of the lysate. Then, the ratio of sfGFP/mCherry is calculated per well, and these ratios are averaged across the triplicate experiments on the same plate. Finally, the ratio of each titration concentration is normalized to the no drug control to create the normalized stalling metric. […]

[5] = test system: CCNTB1; experiment: In vitro transcription-translation (IVTT) assay, CCNTB1 reporter; settings: HeLa S3 lysate, 2 hrs at 30° C.
Method in brief: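 HeLa S3 lysate-based coupled transcription-translation reactions with reporter plasmids, compounds in half-log dilutions (30 μM−0.1 μM, in DMSO), 2 h at 30° C. sfGFP/mCherry ratio, corrected for no-DNA background, normalized to no-drug control and fitted for IC50.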

SMILES | IC50 [1] [µM] | IC50 [2] [µM] | IC50 [3] [µM] | IC50 [4] [µM] | IC50 [5] [µM]
COc1ccc(C[C@H]2NC[C@H](O)[C@H]2OC(=O)NCCC2CCNCC2)cc1 [V188229, (2R,3S,4S)-4-hydroxy-2-[(4-methoxyphenyl)methyl]pyrrolidin-3-yl N-[2-(piperidin-4-yl)ethyl]carbamate] | < 10 | < 10 | 10 to 20 | 10 to 20 | < 10
O=C(NC[C@H]1CCOC1)O[C@@H]1[C@@H](O)CN[C@@H]1Cc1ccc(Cl)cc1 [V188287, (2R,3S,4S)-2-[(4-chlorophenyl)methyl]-4-hydroxypyrrolidin-3-yl N-[(3R)-oxolan-3-ylmethyl]carbamate] | < 10 | < 10 | < 10 | < 10 | < 10
COc1ccc(C[C@H]2NC[C@H](O)[C@H]2OC(=O)NC[C@H]2CCN(c3nccs3)C2)cc1 [V188170, (2R,3S,4S)-4-hydroxy-2-[(4-methoxyphenyl)methyl]pyrrolidin-3-yl N-{[(3R)-1-(1,3-thiazol-2-yl)pyrrolidin-3-yl]methyl}carbamate] | – | 10 to 20 | < 10 | < 10 | < 10
COc1ccc(C[C@H]2NC[C@H](O)[C@H]2OC(=O)NC[C@H]2CCN(C)C2)cc1 [V188108, (2R,3S,4S)-4-hydroxy-2-[(4-methoxyphenyl)methyl]pyrrolidin-3-yl N-{[(3R)-1-methylpyrrolidin-3-yl]methyl}carbamate] | – | > 30 | > 30 | > 30 | 20 to 30
COc1ccc(C[C@H]2NC[C@H](O)[C@H]2OC(=O)NCc2ccnc(C(F)(F)F)c2)cc1 [V188050, (2R,3S,4S)-4-hydroxy-2-[(4-methoxyphenyl)methyl]pyrrolidin-3-yl N-{[2-(trifluoromethyl)pyridin-4-yl]methyl}carbamate] | – | < 10 | < 10 | < 10 | < 10
O=C(NCC1CC1)O[C@@H]1[C@@H](O)CN[C@@H]1Cc1ccc(Cl)cc1 [V188275, (2R,3S,4S)-2-[(4-chlorophenyl)methyl]-4-hydroxypyrrolidin-3-yl N-(cyclopropylmethyl)carbamate] | – | < 10 | 10 to 20 | < 10 | < 10
O=C(NCc1ccc(F)cc1)O[C@@H]1[C@@H](O)CN[C@@H]1Cc1ccc(Cl)cc1 [V188271, (2R,3S,4S)-2-[(4-chlorophenyl)methyl]-4-hydroxypyrrolidin-3-yl N-[(4-fluorophenyl)methyl]carbamate] | – | 10 to 20 | 10 to 20 | < 10 | < 10
COc1ccc(C[C@H]2NC[C@H](O)[C@H]2OC(=O)NCc2cc(N3CCC3)nc(N3CCC3)c2)cc1 [V188227, (2R,3S,4S)-4-hydroxy-2-[(4-methoxyphenyl)methyl]pyrrolidin-3-yl N-{[2,6-bis(azetidin-1-yl)pyridin-4-yl]methyl}carbamate] | – | 20 to 30 | 20 to 30 | 20 to 30 | < 10
COc1ccc(C[C@H]2NC[C@H](O)[C@H]2OC(=O)NCCNc2cc[nH]n2)cc1 [V187944, (2R,3S,4S)-4-hydroxy-2-[(4-methoxyphenyl)methyl]pyrrolidin-3-yl N-[2-(1H-pyrazol-3-ylamino)ethyl]carbamate] | – | 10 to 20 | 20 to 30 | 10 to 20 | < 10
COc1ccc(C[C@H]2NC[C@H](O)[C@H]2OC(=O)NCc2ccc3[nH]cnc3c2)cc1 [V188150, (2R,3S,4S)-4-hydroxy-2-[(4-methoxyphenyl)methyl]pyrrolidin-3-yl N-(JH-1,3-benzodiazol-5-ylmethyl)carbamate] | – | < 10 | < 10 | < 10 | < 10
COc1ccc(C[C@H]2NC[C@H](O)[C@H]2OC(=O)NCc2cc(N3CCCC3)nc(N3CCCC3)c2)cc1 [V188228, (2R,3S,4S)-4-hydroxy-2-[(4-methoxyphenyl)methyl]pyrrolidin-3-yl N-{[2,6-bis(pyrrolidin-1-yl)pyridin-4-yl]methyl}carbamate] | – | > 30 | > 30 | > 30 | > 30
COc1ccc(C[C@H]2NC[C@H](O)[C@H]2OC(=O)NCC2CCNCC2)cc1 [V188172, (2R,3S,4S)-4-hydroxy-2-[(4-methoxyphenyl)methyl]pyrrolidin-3-yl N-(piperidin-4-ylmethyl)carbamate] | – | > 30 | > 30 | > 30 | > 30
O=C(NCc1cc(F)cc(F)c1)O[C@@H]1[C@@H](O)CN[C@@H]1Cc1ccc(Cl)cc1 [V188272, (2R,3S,4S)-2-[(4-chlorophenyl)methyl]-4-hydroxypyrrolidin-3-yl N-[(3,5-difluorophenyl)methyl]carbamate] | – | 10 to 20 | 20 to 30 | < 10 | < 10
COc1ccc(C[C@H]2NC[C@H](O)[C@H]2OC(=O)NCCn2cc[nH]c2=O)cc1 [V188088, (2R,3S,4S)-4-hydroxy-2-[(4-methoxyphenyl)methyl]pyrrolidin-3-yl N-[2-(2-oxo-3H-imidazol-1-yl)ethyl]carbamate] | – | 20 to 30 | > 30 | 10 to 20 | < 10
O=C(NCC1(F)CC1)O[C@@H]1[C@@H](O)CN[C@@H]1Cc1ccc(Cl)cc1 [V188269, (2R,3S,4S)-2-[(4-chlorophenyl)methyl]-4-hydroxypyrrolidin-3-yl N-[(1-fluorocyclopropyl)methyl]carbamate] | – | > 30 | > 30 | 10 to 20 | < 10
O=C(NCc1ccc(Cl)cc1)O[C@@H]1[C@@H](O)CN[C@@H]1Cc1ccc(Cl)cc1 [V188273, (2R,3S,4S)-2-[(4-chlorophenyl)methyl]-4-hydroxypyrrolidin-3-yl N-[(4-chlorophenyl)methyl]carbamate] | – | > 30 | > 30 | 20 to 30 | 10 to 20
O=C(NCc1ccc(OC(F)(F)F)cc1)O[C@@H]1[C@@H](O)CN[C@@H]1Cc1ccc(Cl)cc1 [V188286, (2R,3S,4S)-2-[(4-chlorophenyl)methyl]-4-hydroxypyrrolidin-3-yl N-{[4-(trifluoromethoxy)phenyl]methyl}carbamate] | – | > 30 | > 30 | > 30 | > 30
COc1ccc(C[C@H]2NC[C@H](O)[C@H]2OC(=O)NC[C@@H]2[C@@H]3CNC[C@@H]32)cc1 [V188161, (2R,3S,4S)-4-hydroxy-2-[(4-methoxyphenyl)methyl]pyrrolidin-3-yl N-[(1R,5S,6S)-3-azabicyclo[3.1.0]hexan-6-ylmethyl]carbamate] | – | > 30 | > 30 | 10 to 20 | < 10
